Paper PMC8655237 (Journal of Advanced Research, 2021)

Legend:
COX-2 = biological target: T1, COX-2 (Homo sapiens, UniProt P35354); experiment: cell-based; settings: IC50 COX-2, cell based
T1 sequence (P35354 18-604): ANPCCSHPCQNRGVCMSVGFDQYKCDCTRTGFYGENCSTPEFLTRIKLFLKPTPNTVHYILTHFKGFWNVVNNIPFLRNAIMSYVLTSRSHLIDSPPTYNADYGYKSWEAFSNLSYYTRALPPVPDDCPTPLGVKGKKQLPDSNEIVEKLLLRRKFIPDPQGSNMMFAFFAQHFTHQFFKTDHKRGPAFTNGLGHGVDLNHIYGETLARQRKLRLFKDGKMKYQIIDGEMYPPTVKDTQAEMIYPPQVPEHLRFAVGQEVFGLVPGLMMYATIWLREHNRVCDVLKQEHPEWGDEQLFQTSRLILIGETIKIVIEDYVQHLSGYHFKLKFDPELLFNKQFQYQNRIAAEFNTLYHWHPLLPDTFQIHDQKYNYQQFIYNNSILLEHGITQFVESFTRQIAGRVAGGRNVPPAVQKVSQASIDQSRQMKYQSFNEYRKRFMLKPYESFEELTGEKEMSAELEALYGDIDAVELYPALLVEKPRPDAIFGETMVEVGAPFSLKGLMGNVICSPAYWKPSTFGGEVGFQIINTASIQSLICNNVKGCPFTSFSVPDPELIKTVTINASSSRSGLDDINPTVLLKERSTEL

PC-3 [1] = experiment: Cell cycle analysis by flow cytometry; format: cell-based, human; settings: PC-3, 24 h
PC-3 [2] = experiment: MTT antiproliferative assay; format: cell-based; settings: Homo sapiens, PC-3, 24 h, read-out: IC50 (MTT)
DHFR mRNA = experiment: Real-time qPCR expression analysis; format: cell-based, human; settings: A549, with respect to control, GAPDH internal control
FaDu = experiment: MTT antiproliferative assay; format: cell-based; settings: Homo sapiens, 24 h, read-out: IC50 (MTT)
human erythrocytes = experiment: Ex vivo osmotic fragility test; settings: 100 μM
PC-3 [3] = experiment: NRU antiproliferative assay; format: cell-based; settings: Homo sapiens, PC-3, 24 h, read-out: IC50 (NRU)
LOX-5 = LOX-5 (Homo sapiens, UniProt P09917); experiment: LOX-5 assay, cell-based; settings: IC50 LOX-5, cell based, K562
Sequence of LOX-5 (P09917 whole entry): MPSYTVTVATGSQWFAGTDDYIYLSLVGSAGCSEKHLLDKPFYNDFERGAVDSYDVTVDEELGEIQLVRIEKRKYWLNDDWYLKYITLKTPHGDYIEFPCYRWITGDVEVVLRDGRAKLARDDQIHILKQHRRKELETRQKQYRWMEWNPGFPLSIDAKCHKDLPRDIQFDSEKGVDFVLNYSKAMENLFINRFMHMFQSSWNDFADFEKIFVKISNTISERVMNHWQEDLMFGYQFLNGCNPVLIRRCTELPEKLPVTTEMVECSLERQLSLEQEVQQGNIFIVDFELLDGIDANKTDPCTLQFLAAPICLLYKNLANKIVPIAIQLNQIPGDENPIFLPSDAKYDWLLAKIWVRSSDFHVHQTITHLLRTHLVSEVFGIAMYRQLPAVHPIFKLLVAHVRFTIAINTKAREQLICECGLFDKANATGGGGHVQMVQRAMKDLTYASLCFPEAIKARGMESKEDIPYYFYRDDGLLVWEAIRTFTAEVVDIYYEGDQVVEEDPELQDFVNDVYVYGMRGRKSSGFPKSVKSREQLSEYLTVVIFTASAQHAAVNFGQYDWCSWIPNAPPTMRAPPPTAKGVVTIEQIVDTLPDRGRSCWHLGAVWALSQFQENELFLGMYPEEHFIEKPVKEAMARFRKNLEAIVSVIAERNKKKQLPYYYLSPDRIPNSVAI

HYAL mRNA = experiment: Real-time qPCR expression analysis; format: cell-based, human; settings: GAPDH internal control
hyaluronidase = experiment: Hyaluronidase activity in EAC cells of treated mice; format: in vivo; settings: 75 mg/kg bw, i.p.
mTOR = mTOR quantification by ELISA in A431 cells; format: cell-based, human; settings: A431, 100 µM, 24 h
[4] = biological target: T2, Ornithine decarboxylase (ODC) (Homo sapiens, UniProt P11926); experiment: ODC assay, cell-based; settings: for IC50: IC50 ODC, cell based
T2 sequence (P11926 1-461): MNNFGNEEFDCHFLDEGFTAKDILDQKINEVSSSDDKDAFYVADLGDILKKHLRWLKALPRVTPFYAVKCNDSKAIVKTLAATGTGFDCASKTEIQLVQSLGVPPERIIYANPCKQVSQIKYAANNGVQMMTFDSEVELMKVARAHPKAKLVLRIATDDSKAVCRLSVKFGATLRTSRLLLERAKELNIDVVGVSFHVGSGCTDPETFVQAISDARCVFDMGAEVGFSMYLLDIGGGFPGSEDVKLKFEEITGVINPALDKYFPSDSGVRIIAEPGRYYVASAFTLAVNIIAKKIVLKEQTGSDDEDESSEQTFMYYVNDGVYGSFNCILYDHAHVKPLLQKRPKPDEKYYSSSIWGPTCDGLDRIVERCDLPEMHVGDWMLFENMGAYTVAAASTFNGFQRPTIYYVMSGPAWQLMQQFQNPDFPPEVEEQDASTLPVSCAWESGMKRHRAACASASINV

HDAC-6 = HDAC-6 quantification by ELISA in A431 cells; format: cell-based, human; settings: A431, 100 µM, 24 h
A431 = experiment: NRU antiproliferative assay; format: cell-based; settings: Homo sapiens, A-431, 24 h, read-out: IC50 (NRU)

CC(C)[C@@H]1CC[C@@H](C)C[C@@H]1O [neomenthol, (+)-Neomenthol]
IC50 (COX-2; A431): 39.1 ± 6.39 µM
IC50 (COX-2; FaDu): 87.2 ± 5.24 µM
IC50 (COX-2; PC-3): 62.2 ± 10.7 µM
cell cycle phase arrested (PC-3 [1]): arrest of the G0/G1 phase
IC50 (PC-3 [2]): 20.1 ± 0.82 µM
DHFR mRNA expression level (DHFR mRNA): 1.17 fold change
IC50 (FaDu): 99.31 ± 0.59 µM
toxicity to erythrocytes (osmotic fragility) (human erythrocytes): non-toxic to erythrocytes
IC50 (PC-3 [3]): 84.6 ± 1.81 µM
IC50 (LOX-5): 72.2 ± 2.19 µM
HYAL mRNA expression level (HYAL mRNA; A431, with respect to control): 1.52 fold change
HYAL mRNA expression level (HYAL mRNA; FaDu, with respect to control): 1.06 fold change
HYAL mRNA expression level (HYAL mRNA; PC-3, with respect to control): 1.37 fold change
inhibition (modulation) of hyaluronidase activity in EAC cells of mice (hyaluronidase): up to 10%
mTOR level (ng/mg of protein) (mTOR): 0.336 ± 0.108 ng/mg
percent inhibition of ODC ([4]; A549, PC-3, A431, and FaDu cell lines): below 50%
IC50 ([4]; K562): 29.6 ± 2.54 µM
IC50 ([4]; MDA-MB-231): 57.2 ± 2.84 µM
HDAC-6 level (ng/mg of protein) (HDAC-6): 0.104 ± 0.001 ng/mg
IC50 (A431): 18.5 ± 3.66 µM
